Measurements from patent US6727264B1 (Synaptic Pharmaceutical Corporation, priority 2001, dated 2004).

molecular target: rat MCH-1 (Rattus norvegicus, UniProt P97639); assay: Radioligand binding assay at cloned rat MCH1 receptor ([3H] Compound A); parameters: host or cells: Peak rapid 293 (Peakr293) cells, transient calcium phosphate transfection, membranes; settings: cloned rat MCH1 receptor, membranes from Peakr293 cells, 0.08 nM [3H] Compound A; read-out: Ki (nM) rMCH1
Sequence (P97639 whole entry): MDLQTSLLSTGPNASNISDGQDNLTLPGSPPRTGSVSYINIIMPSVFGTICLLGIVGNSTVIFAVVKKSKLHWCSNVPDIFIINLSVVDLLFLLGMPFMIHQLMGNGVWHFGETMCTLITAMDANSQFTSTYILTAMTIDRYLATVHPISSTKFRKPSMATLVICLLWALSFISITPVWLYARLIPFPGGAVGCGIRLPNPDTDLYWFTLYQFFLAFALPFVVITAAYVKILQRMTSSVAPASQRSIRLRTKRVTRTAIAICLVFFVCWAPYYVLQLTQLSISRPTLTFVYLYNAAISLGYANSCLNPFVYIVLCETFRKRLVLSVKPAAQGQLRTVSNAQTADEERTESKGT

Row | Compound | Ki [nM]
1 | Cc1onc(-c2ccccc2)c1C(=O)OCCCN1CCC(c2cccc(NC(=O)C(C)C)c2)CC1 [Example 293, 3-{4-[3-(ISOBUTYRYLAMINO)PHENYL]-1-PIPERIDINYL}PROPYL 5-METHYL-3-PHENYL-4-ISOXAZOLECARBOXYLATE] | 39.9
2 | CC(=O)c1cccc(O[C@H](CN2CCC(c3cccc(NC(=O)C(C)C)c3)CC2)c2ccccc2)c1 [Example 333] | 568
3 | Cc1onc(-c2c(F)cccc2Cl)c1C(=O)OCCCN1CCC(c2cccc(NC(=O)C(C)C)c2)CC1 [Example 287, 3-{4-[3-(ISOBUTYRYLAMINO)PHENYL]-1-PIPERIDINYL}PROPYL 3-(2-CHLORO-6-FLUOROPHENYL)-5-METHYL-4-ISOXAZOLECARBOXYLATE] | 34.3
4 | CC(C)C(=O)Nc1cccc(C2CCN(C[C@H](C)COc3ccc(F)cc3)CC2)c1 [Example 359] | 83.2
5 | CC(C)C(=O)Nc1cccc(C2CCN(CCCCC(O)c3ccccc3)CC2)c1 (stereo not drawn) [Example 280] | 27.6
6 | CCOC(=O)c1c(CN2CCC(c3cccc(NC(=O)C(C)C)c3)CC2)c(C)n(-c2ccccc2)c1C [Example 221, ETHYL 4-({4-[3-(ISOBUTYRYLAMINO)PHENYL]-1-PIPERIDINYL}METHYL)-2,5-DIMETHYL-1-PHENYL-1H-PYRROLE-3-CARBOXYLATE] | 546
7 | CC(C)C(=O)Nc1cccc(C2CCN(CCC(=O)c3ccc(Cl)cc3)CC2)c1 [Example 118] | 43.6
8 | CC(=O)c1cccc(OCCCCN2CCC(c3cccc(NC(=O)C(C)C)c3)CC2)c1 [Example 375] | 186
9 | CC(C)C(=O)Nc1cccc(C2CCN(CC[C@H](NC(=O)c3ccc(-c4ccccc4)cc3)c3ccccc3)CC2)c1 [Example 308] | 402
10 | CC(C)C(=O)Nc1cccc(C2CCN(C[C@@H](C)COc3ccc(F)cc3)CC2)c1 [Example 367] | 236
11 | CCn1c2ccccc2c2cc(CN3CCC(c4ccc(C)c(NC(=O)C(C)C)c4)CC3)ccc21 [Example 268] | 20.3
12 | CC(C)C(=O)Nc1cccc(C2CCN(Cc3c(OCc4cccc(Cl)c4)ccc4ccccc34)CC2)c1 [Example 192] | 80.5
13 | CC(C)C(=O)Nc1cccc(C2CCN(CCC(Oc3ccc(Br)cc3)c3ccc(Br)cc3)CC2)c1 (stereo not drawn) [Example 158] | 7.8
14 | CCn1c2ccccc2c2cc(CN3CCC(c4ccccc4NC(=O)C(C)C)CC3)ccc21 [Example 274] | 844
15 | CC(C)C(=O)Nc1cccc(C2CCN(CCCc3c(-c4ccccc4)[nH]c4c3ccc3ccccc34)CC2)c1 [Example 388] | 20.7
16 | CC(C)C(=O)Nc1cccc(C2CCN(C(C)c3csc(-c4ccccc4)n3)CC2)c1 (stereo not drawn) [Example 201] | 996
17 | CC(C)C(=O)Nc1cccc(C2CCN(C[C@@H](C)COc3ccccc3Br)CC2)c1 [Example 372] | 358
18 | CC(C)C(=O)Nc1cccc(C2CCN(Cc3ccc(-c4cccc(OC(F)(F)F)c4)o3)CC2)c1 [Example 254] | 401

same assay, conditions: cloned rat MCH1 receptor; 0.08 nM [3H] Compound A; Peakr293 cell membranes; read-out: Ki (nM) rMCH1

Row | Compound | Ki [nM]
19 | CC(C)C(=O)Nc1cccc(C2CCN(CCCc3c(-c4ccccc4Cl)n(-c4ccccc4)c4ccccc34)CC2)c1 [Example 734] | 28.6
20 | CC(C)C(=O)Nc1cccc(C2CCN(CCCCC(=O)c3cccc(C(F)(F)F)c3)CC2)c1 [Example 670] | 57.6
21 | COc1ccc(CCCCN2CCC(c3cccc(NC(=O)C(C)C)c3)CC2)cc1 [Example 797] | 42.4
22 | CC(C)C(=O)Nc1cccc(C2CCN(CCCCCCC(Oc3cc(C(F)(F)F)ccc3F)c3ccccc3F)CC2)c1 (stereo not drawn) [Example 917] | 78
23 | CCC(=O)Nc1cccc(C2CCN(Cc3c[nH]c4cc(F)ccc34)CC2)c1 [Example 468] | 912
24 | CC(C)C(=O)Nc1cccc(C2CCN(CCCCCC(O)c3ccc(Cl)cc3)CC2)c1 (stereo not drawn) [Example 818] | 38.2
25 | CCOc1ccccc1OC(CCCCN1CCC(c2cccc(NC(=O)C(C)C)c2)CC1)c1ccccc1 (stereo not drawn) [Example 939] | 62
26 | O=C(CCCCN1CCC(c2cccc(NC(=O)C3CC3)c2)CC1)c1cccc(Cl)c1 [Example 564] | 28.9
27 | CCCc1c(C(=O)NCCCCCCN2CCC(c3cccc(NC(=O)C(C)C)c3)CC2)cnn1-c1ccccc1 [Example 633] | 108
28 | CC(C)C(=O)Nc1cccc(C2CCN(Cc3cccc4c3ccn4-c3ccc(F)cc3Cl)CC2)c1 [Example 865] | 94.6
29 | O=C(Nc1cccc(C2CCN(Cc3c[nH]c4cc(F)ccc34)CC2)c1)C1CC1 [Example 469] | 479
30 | CC(C)C(=O)Nc1cccc(C2CCN(CCNC(=O)c3coc(Oc4cc(Cl)cc(Cl)c4)c3)CC2)c1 [Example 648] | 13.4
31 | CC(C)C(=O)Nc1cccc(C2CCN(CCCc3c(-c4cccc(Cl)c4)[nH]c4c3ccc3ccccc34)CC2)c1 [Example 728] | 16.3
32 | CC(C)C(=O)Nc1cccc(C2CCN(Cc3cn(-c4ccccc4)c4cc(Cl)ccc34)CC2)c1 [Example 503] | 6
33 | Cc1cccc(-n2ccc3c(CN4CCC(c5cccc(NC(=O)C(C)C)c5)CC4)cccc32)c1 [Example 859] | 321
34 | Cc1onc(-c2ccccc2Cl)c1C(=O)NCCCCN1CCC(c2cccc(NC(=O)C(C)C)c2)CC1 [Example 680] | 28.1
35 | Cc1cc(CN2CCC(c3cccc(NC(=O)C(C)C)c3)CC2)cc2c3ccccc3n(C)c12 [Example 822] | 1
36 | CC(C)C(=O)Nc1cccc(C2CCN(CC[C@H](NS(=O)(=O)c3cccc4c(N(C)C)cccc34)c3ccccc3)CC2)c1 [Example 594] | 67
37 | CC(C)C(=O)Nc1cccc(C2CCN(CCCc3c(-c4ccc(Br)cc4)n(C)c4ccccc34)CC2)c1 [Example 759] | 9.3
38 | CC(C)C(=O)Nc1cccc(C2CCN(CCCc3c(-c4ccc([N+](=O)[O-])cc4)[nH]c4c3ccc3ccccc34)CC2)c1 [Example 777] | 8.5
39 | CC(C)C(=O)Nc1cccc(C2CCN(CCCCc3ccc([N+](=O)[O-])cc3)CC2)c1 [Example 800] | 9.9
40 | CC(C)C(=O)Nc1cccc(C2CCN(CCCn3ccc4ccccc43)CC2)c1 [Example 844] | 37.8
41 | CC(C)C(=O)Nc1cccc(C2CCN(CCCCC(O)c3ccccc3F)CC2)c1 (stereo not drawn) [Example 814] | 159
42 | Cc1ccc2[nH]c(-c3cccc(F)c3)c(CCCN3CCC(c4cccc(NC(=O)C(C)C)c4)CC3)c2c1 [Example 706] | 4.2
43 | CCc1ccc(-c2ccc3c(CN4CCC(c5cccc(NC(=O)C(C)C)c5)CC4)c[nH]c3c2)cc1 [Example 523] | 54.8
44 | CC(C)C(=O)Nc1cccc(C2CCN(Cc3ccc4c(ccn4-c4cccc(Cl)c4)c3)CC2)c1 [Example 842] | 15.8

Row | Compound | Ki [nM]
45 | CCC(=O)Nc1ccc(C2CCN(CCCCCCn3ccc4ccccc43)CC2)cc1 [Example 828] | 516
46 | CCC(=O)Nc1cccc(C2CCN(Cc3cn(-c4cccc(Cl)c4)c4cc(Cl)ccc34)CC2)c1 [Example 478] | 11.7
47 | CCC(=O)Nc1cccc(C2CCN(CCCC(=O)c3ccc(Oc4ccccc4)cc3)CC2)c1 [Example 536] | 150
48 | CC(C)C(=O)Nc1cccc(C2CCN(CCCNC(=O)N3C(=O)OC[C@@H]3c3ccc(F)c(F)c3)CC2)c1 [Example 576] | 74.3
49 | CC(C)C(=O)Nc1cccc(C2CCN(Cc3ccc4cc[nH]c4c3)CC2)c1 [Example 868] | 403
50 | CC(C)C(=O)Nc1cccc(C2CCN(CCCc3c(-c4ccc(C(F)(F)F)cc4)n(C)c4ccccc34)CC2)c1 [Example 682] | 7.1
51 | Cc1cccc2c(CCN3CCC(c4cccc(NC(=O)C(C)C)c4)CC3)c[nH]c12 [Example 409] | 96.7
52 | COc1ccc(OC(CCCCCN2CCC(c3cccc(NC(=O)C(C)C)c3)CC2)c2ccc(Cl)cc2)cc1 (stereo not drawn) [Example 906] | 5.7
53 | COC(=O)c1ccc(-n2ccc3c(CN4CCC(c5cccc(NC(=O)C(C)C)c5)CC4)cccc32)cc1 [Example 834, METHYL 4-[4-({4-[3-(ISOBUTYRYLAMINO)PHENYL]-1-PIPERIDINYL)METHYL)-1H-INDOL-1-YL]BENZOATE] | 38.3
54 | CC(C)C(=O)Nc1cccc(C2CCN(CCCCNC(=O)c3cccc(Cl)c3)CC2)c1 [Example 657] | 77.9
55 | CC(C)C(=O)Nc1cccc(C2CCN(CCCc3c(-c4ccc(I)cc4)[nH]c4c3ccc3ccccc34)CC2)c1 [Example 749] | 23.2
56 | CC(C)C(=O)Nc1cccc(C2CCN(CCCNC(=O)Cc3ccc(F)cc3)CC2)c1 [Example 639] | 36.3
57 | CCOc1ccccc1OC(CCCCCN1CCC(c2cccc(NC(=O)C(C)C)c2)CC1)c1ccccc1F (stereo not drawn) [Example 895] | 6.4
58 | CC(C)C(=O)Nc1cccc(C2CCN(CCCc3c(-c4cccc(F)c4)[nH]c4ccccc34)CC2)c1 [Example 704] | 1.2
59 | CC(C)C(=O)Nc1cccc(C2CCN(CCCCC(=O)c3ccccc3Cl)CC2)c1 [Example 673] | 32.5
60 | CC(C)C(=O)Nc1cccc(C2CCN(Cc3cccc4c3ccn4-c3cccc(Cl)c3Cl)CC2)c1 [Example 857] | 89.8
61 | CC(C)C(=O)Nc1cccc(C2CCN(CCCCC(Oc3cc(C(F)(F)F)ccc3F)c3cccc(Cl)c3)CC2)c1 (stereo not drawn) [Example 930] | 14.6
62 | CC(C)C(=O)Nc1cccc(C2CCN(Cc3c(-c4ccccc4)n(-c4ccccc4)c4ccccc34)CC2)c1 [Example 433] | 30.4
63 | CCn1c2ccccc2c2cc(CN3CCC(c4cccc(NC(=O)C5CC5)c4)CC3)ccc21 [Example 823] | 2.7
64 | COc1cccc2c(CCN3CCC(c4cccc(NC(=O)C(C)C)c4)CC3)c(-c3ccccc3)[nH]c12 [Example 400] | 43.9
65 | CC(C)C(=O)Nc1cccc(C2CCN(CCCCC(=O)c3ccc(Br)cc3)CC2)c1 [Example 667] | 43.9
66 | CC(C)C(=O)Nc1cccc(C2CCN(CCCCC(Oc3ccc(Br)cc3)c3ccc(F)cc3)CC2)c1 (stereo not drawn) [Example 919] | 14
67 | COc1ccc2[nH]c(-c3cccc([N+](=O)[O-])c3)c(CCCN3CCC(c4cccc(NC(=O)C(C)C)c4)CC3)c2c1 [Example 770] | 12.7
68 | CC(C)C(=O)Nc1cccc(C2CCN(CCCc3c[nH]c4ccc(OC(F)(F)F)cc34)CC2)c1 [Example 416] | 12.6
69 | CC(C)C(=O)Nc1cccc(C2CCN(CCCCNC(=O)c3cccnc3Oc3ccc(Cl)cc3)CC2)c1 [Example 678] | 14.7
